The PolyMetriX glass transition set
± gives the standard deviation of the reports.

`*Oc1ccc(/C=C/C(=O)c2ccc(Oc3ccc(C(C)(c4ccccc4)c4ccc(*)cc4)cc3)cc2)cc1` (repeat unit) showed a glass transition temperature of 167.00 °C. Work on `*c1ccc(-c2ccc(-c3ccc(-n4c(=O)c5cc6c(=O)n(*)c(=O)c6c(C(F)(F)F)c5c4=O)cc3)cc2)cc1` (repeat unit) yielded a glass transition temperature of 364.00 °C. For `*CC(C[Si](*)(C)C)c1ccccc1` (repeat unit), the glass transition temperature was -5.00 °C. `*CCOC(=O)NNC(=O)CCCCCCCCC(=O)NNC(=O)O*` (repeat unit) showed a glass transition temperature of 63.00 °C. `*CCC(C)CCC(=O)S*` (repeat unit) showed a glass transition temperature of -50.00 °C. `*CCCC(O)CN(CCCC)c1ccc(C#Cc2ccc(S(*)(=O)=O)cc2)cc1` (repeat unit) gave a glass transition temperature of 48.00 °C. `*Nc1cc(NC(=O)c2ccc(C(*)=O)cc2)cc(C(=O)Oc2cccc3ccccc23)c1` (repeat unit) gave a glass transition temperature of 192.00 °C. Compound `*c1ccc(C(=O)OCCCCCCCCOc2ccc(/C=C3\CCCC/C(=C\c4ccc(OCCCCCCCCOC(=O)c5ccc(-c6nnc(*)o6)cc5)cc4)C3=O)cc2)cc1` (repeat unit) has a glass transition temperature of 98.00 °C. For `*c1ccc(-c2cnc3ccc(-c4ccc5nc(*)cnc5c4)cc3n2)cc1` (repeat unit), the glass transition temperature was 376.00 °C. For `*Oc1c(Br)cc(C2(c3cc(Br)c(OC(*)=O)c(Br)c3)CC3CCC2C3)cc1Br` (repeat unit), the glass transition temperature was 283.00 °C. With `*CCCOCCCCOCCCN1C(=O)c2ccc(C(=O)Oc3ccc(C(C)(C)c4ccc(OC(=O)c5ccc6c(c5)C(=O)N(*)C6=O)cc4)cc3)cc2C1=O` (repeat unit) the glass transition temperature was 60.00 °C. In the case of `*c1ccc(N/C=N/c2ccc(S(*)(=O)=O)cc2)cc1` (repeat unit), the glass transition temperature is reported as 163.00 °C. `*CC(*)(CC(=O)OC1CCC1)C(=O)OC1CCC1` (repeat unit) showed a glass transition temperature of 60.00 °C. `*c1ccc(-c2ccc(-c3ccc(-c4ccc(-c5cc(-c6ccccc6)c6cc(Oc7ccc8nc(*)cc(-c9ccccc9)c8c7)ccc6n5)cc4)cc3)cc2)cc1` (repeat unit) gave a glass transition temperature of 310.00 °C. For `*C1C2CCC(C2)C1*` (repeat unit), the glass transition temperature was 240.00 °C. `*CC(*)(C)C(=O)OCc1ccc(OCCOCCOCC)c(OCCOCCOCC)c1` (repeat unit) gave a glass transition temperature of -33.00 °C. With `*CC(O)COc1ccc(C(C)(C)c2ccc(OCC(O)COc3ccc(C4(c5ccc(O*)cc5)c5ccccc5-c5ccccc54)cc3)cc2)cc1` (repeat unit) the glass transition temperature was 161.00 °C. Work on `*c1ccc2c(c1)C(=O)N(C1CCC(CC3CCC(N4C(=O)c5ccc(C(*)(C(F)(F)F)C(F)(F)F)cc5C4=O)C(C)C3)CC1C)C2=O` (repeat unit) yielded a glass transition temperature of 225.00 °C. With `*CC(*)(C)C(=O)OCCN(CC)c1ccc(/N=N/c2ccc(C#N)cc2)cc1` (repeat unit) the glass transition temperature was 119.00 °C. With `*CCCCCCNC(=O)c1ccc(C(=O)N*)c(Sc2ccccc2)c1` (repeat unit) the glass transition temperature was 121.00 °C. For `*CCCCCCOC(=O)c1ccc(-c2ccc(C(=O)O*)cc2)cc1` (repeat unit), the glass transition temperature was 51.00 °C. Compound `*c1[nH]c(*)c(OC)c1OC` (repeat unit) has a glass transition temperature of -26.00 °C. Work on `*CC1CCC(COP(=O)(/N=N/c2ccc(-c3ccc(/N=N/P(=O)(O*)OC)cc3)cc2)OC)CC1` (repeat unit) yielded a glass transition temperature of 58.00 °C. `*CCOCCOCCOC(=O)/C=C/C(=O)NCCCCCCNC(=O)/C=C/C(=O)O*` (repeat unit) showed a glass transition temperature of 65.00 °C. `*CCCCCCCNC(=O)N*` (repeat unit) showed a glass transition temperature of 62.00 °C. With `*O[Si](C)(C)c1ccc2cc3cc([Si](*)(C)C)ccc3cc2c1` (repeat unit) the glass transition temperature was 118.00 °C. `*CCCCCCCCCOC(=O)NCCCCCCNC(=O)O*` (repeat unit) showed a glass transition temperature of 58.00 °C. `*OS(=O)(=O)c1cc(S(=O)(=O)Oc2ccc(C3(c4ccc(*)cc4)CCCCC3)cc2)ccc1C` (repeat unit) gave a glass transition temperature of 142.00 °C. With `*c1ccc(Oc2ccc(C(=O)c3ccc(Oc4ccc(N5C(=O)c6ccc(S(=O)(=O)c7ccc8c(c7)C(=O)N(*)C8=O)cc6C5=O)cc4)cc3)cc2)cc1` (repeat unit) the glass transition temperature was 275.50 °C. `*Nc1cccc2c(N[Se]*)cccc12` (repeat unit) showed a glass transition temperature of 53.00 °C. For `*c1cccc(NC(=O)c2ccc(OCCOCCOCCOCCOc3ccc(C(=O)Nc4ccc5[nH]c(*)nc5c4)cc3)cc2)c1` (repeat unit), the glass transition temperature was 155.00 °C. `*c1ccc(-c2nnc(-c3cccc(-c4nnc(*)o4)c3)o2)cc1` (repeat unit) showed a glass transition temperature of 278.00 °C. Compound `*CC(*)(C)C(=O)OCC` (repeat unit) [Poly(1-(Diethylamino)ethyl methacrylate)] has a glass transition temperature of 20 ± 27 °C. With `*CC(*)c1ccc(OC(C)=O)c(OC)c1` (repeat unit) the glass transition temperature was 115.00 °C. With `*Oc1c(-c2ccccc2)cc(*)cc1-c1ccc(C)cc1` (repeat unit) the glass transition temperature was 218.00 °C. `*CCCCCCNC(=O)CCCCC(=O)N*` (repeat unit) [Poly(hexamethylene adipamide)] showed a glass transition temperature of 54.53 ± 5.2 °C. `*CC(OCCCC)C1(C)C(=O)OC(=O)C1(*)C` (repeat unit) showed a glass transition temperature of 197.00 °C. Work on `*CCCCCCOC(=O)OCCCCCCCCOC(=O)OCCCCCCOc1ccc(C(=O)c2ccc(O*)cc2)cc1` (repeat unit) yielded a glass transition temperature of -7.70 °C. `*CC(O)COc1ccc(C(C)(C)c2ccc(OCC(O)COc3cccc(NC(=O)CCCCCC(=O)Nc4cccc(O*)c4)c3)cc2)cc1` (repeat unit) gave a glass transition temperature of 107.00 °C. `*C(c1ccc(N(C)C)cc1)C(*)c1ccc([N+](=O)[O-])cc1` (repeat unit) gave a glass transition temperature of 139.00 °C. Compound `*c1ccc(-c2cc(CCCCCCCC)c(-c3ccc(-c4ccc(-c5sc(-c6ccc([Si](*)(C)C)s6)cc5CCCCCCCC)s4)s3)s2)s1` (repeat unit) has a glass transition temperature of 31.00 °C. With `*c1cccc(S(=O)(=O)NCCNS(*)(=O)=O)c1` (repeat unit) the glass transition temperature was 107.00 °C. `*c1ccc(C(=O)Nc2cccc(Oc3ccc(S(=O)(=O)c4ccc(Oc5cccc(NC(=O)c6ccc(N7C(=O)c8ccc(-c9cccc%10c9C(=O)N(*)C%10=O)cc8C7=O)cc6)c5)cc4)cc3)c2)cc1` (repeat unit) showed a glass transition temperature of 241.00 °C. Work on `*CC(*)SC` (repeat unit) [Poly(vinyl methyl sulfide) ] yielded a glass transition temperature of -1 ± 1.2 °C. With `*c1ccc(Oc2ccc(Oc3ccc(N4C(=O)c5ccc(Oc6ccc(Oc7ccc(Oc8ccc9c(c8)C(=O)N(*)C9=O)cc7)cc6)cc5C4=O)cc3)cc2)cc1` (repeat unit) the glass transition temperature was 203.00 °C. Compound `*N(C)[Si](*)(C)C=C` (repeat unit) has a glass transition temperature of -20.00 °C. For `*CC(*)C(=O)OCc1ccccc1` (repeat unit), the glass transition temperature was 9.2 °C. `*c1cccc(C(=O)Nc2ccc(NC(=O)c3cccc(N4C(=O)c5ccc(-c6cccc7c6C(=O)N(*)C7=O)cc5C4=O)c3)cc2)c1` (repeat unit) showed a glass transition temperature of 328.00 °C. Compound `*Cc1ccc(C(C)(C)c2ccc(CN3C(=O)c4ccc(C(c5ccc6c(c5)C(=O)N(*)C6=O)(C(F)(F)F)C(F)(F)F)cc4C3=O)o2)o1` (repeat unit) has a glass transition temperature of 134.00 °C. With `*Oc1ccc(C(C)(C)c2ccc(OC(=O)c3ccc(C(*)=O)cc3)c(CCCC)c2)cc1CCCC` (repeat unit) the glass transition temperature was 160.00 °C.
